Results published in patent US20020107197A1, “Ligands for G protein coupled receptors and methods of using them” (priority 2000, published 2002).

Experiments:
TDAG8 [1] = target: T1, TDAG8 (Homo sapiens, UniProt Q8IYL9); experiment: Transwell cell migration of TDAG8-transfected HEK293 cells; assay type: cell-based; details: TDAG8 overexpressed in HEK293 cells
T1 construct: expressed in transfected cells
Procedure: To determine whether GPR4 and/or TDGA8 can mediate the LPC-induced cell migration, we transfected HEK293 cells with GPR4 or TDAG8. Cell migration was performed in Transwell apparatus. GPR4-transfected HEK293 cells, and TDAG8-transfected HEK293 cells migrated to the low-phase of the membrane and the lower chamber of the Transwell in response to SPC and LPC, used at 0.2 μM.

GPR4 [2] = target: T2, GPR4 (Homo sapiens, UniProt P46093); experiment: ERK MAP kinase activation (phospho-ERK Western blot) in GPR4-infected Swiss 3T3 cells; assay type: cell-based; details: for concentration at which ERK activation was evident / time point at which ERK activation was evident: GPR4-infected Swiss 3T3 cells; for GPR4-dependent ERK activation (in words): GPR4-ires-GFP vs GFP Swiss 3T3 cells, SPC and LPC 100 nM
T2 construct: were used to generate full length GPR4, which was digested with EcoRI and Xba I and cloned into the pBs3HA vector; expressed in transfected cells
Method in brief: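 Swiss 3T3 cells transduced with MSCV GPR4-ires-GFP or empty vector, FACS-sorted for GFP, serum-starved overnight, then stimulated with lipids in DMEM. Phospho-ERK1/2 detected by Western blot with ECL, normalised to total ERK; some cells pretreated with 100 ng/ml PTX for 12–16 h before SPC or LPC.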

TDAG8 [3] = target: T1, TDAG8; experiment: TDAG8 receptor internalization; assay type: cell-based
Text: G protein coupled receptors undergo agonist-dependent desensitization and internalization.

[4] = system: vector-transfected HEK293 cells; experiment: SRE luciferase reporter in vector-transfected HEK293 cells; assay type: cell-based, human
Procedure: The serum-response element (SRE) reporter system is a sensitive assay for receptors of lipid factors (An et al. (1998) J Biol Chem 273, 7906-7910; An et al. (1999) Mol Pharmacol 55, 787-794). The SRE reporter system used herein (pSRE-Luc) was a gift from Dr. Songzhu An (UCSF), or may be purchased from Stratagene (La Jolla, Calif.). Both systems give identical results. HEK293 and HEK293GPR4 cells were cultured in RPMI1640 with 10% FBS in 10 cm dishes to ˜85% confluence. To the cells in each dish, pSRE-Luc (10 μg) was transfected in the presence of 60 μl LipofectAMINE reagent. Cells were seeded in 96-well plates 16 h after transfection, incubated for another 24 h in RPMI1640 with 10% FBS, and starved in serum-free medium for 16 h. SPC (dissolved in PBS to 10 mM) and other lipids (LPCs were dissolved in 70% ethanol. Other lipids were dissolved in PBS, 70-95% ethanol, or 100% MeOH) were diluted in serum free RPMI 1640 and added to the cells, followed by a 10 h incubation. Luciferase activity was measured in Microlite™ 1 plates (DYNEX Technologies, Inc., Virginia) using 60 μl of cell lysate and 20 μl luciferase substrate. PTX (100 ng/ml) was added during the 16 h serum starvation period and pcDNA1-C3 (encoding the C3-exoenzyme, 2 μg) was co-transfected with pSRE-Luc (10 μg). All experiments were performed in quadruplicate and were repeated at least three times. The Student's t test was performed using the GraphPad Instat software (San Diego, Calif.). p<0.05 was considered to be statistically significant.

GPR4 [5] = target: T2, GPR4; experiment: Cell migration in modified Boyden chamber, GPR4-ires-GFP vs GFP Swiss 3T3 cells; assay type: cell-based; details: for increase of cell migration over GFP-Swiss 3T3 cells: 100 nM, lower chamber only; for chemokinetic assay: cell motility vs controls: lipid 100 nM in both upper and lower chambers, GFP or GFP-GPR4 Swiss 3T3 cells
Procedure: Chemotaxis was measured in a modified Boyden chamber assay. Briefly, different lipids were added to the lower chambers. GPR4-ires-GFP- and GFP-Swiss 3T3 cells were serum starved for 4 h, trypsinized, and seeded in the upper chambers of Boyden-transwell plates (Corning Inc., Corning, N.Y.). The chambers were incubated for 6 to 8 h. The number of cells that migrated to the lower face of the membrane was counted in 4 random fields. Data are represented as the average ±SD of three independent experiments. For the chemokinetic assay, the same concentrations of lipids were added to both the upper and lower chambers. For Rho inhibition studies, C3-exoenxyme was transiently transfected into Swiss 3T3 cells and cell migration assays were performed 48 hours later.

Swiss 3T3 cells = experiment: DNA synthesis ([3H]thymidine incorporation) in parental and GFP-infected Swiss 3T3 cells; assay type: cell-based
Procedure: The effect of SPC and LPC on DNA synthesis was measured using [^3H] thymidine incorporation. Briefly, GPR4-ires-GFP- and GFP-Swiss 3T3 cells were plated in 96-well plates, serum-starved for 24 h, and treated with SPC, LPC, or other lipids in serum-free DMEM for 24 h. Cells were incubated with 0.75 μCi/ml [^3H]thymidine in serum-free DMEM for the last 18 h. Cells were harvested onto filter papers presoaked in 1% polyethylenimine using the automated cell harvester HARVEST 96. Incorporated [^3H]thymidine was counted in a 1450 Microbeta Trilux Liquid Scintillation and Luminescence Counter (Perkin-Elmer-Wallac, Inc.).

T1 sequence (Q8IYL9 whole entry): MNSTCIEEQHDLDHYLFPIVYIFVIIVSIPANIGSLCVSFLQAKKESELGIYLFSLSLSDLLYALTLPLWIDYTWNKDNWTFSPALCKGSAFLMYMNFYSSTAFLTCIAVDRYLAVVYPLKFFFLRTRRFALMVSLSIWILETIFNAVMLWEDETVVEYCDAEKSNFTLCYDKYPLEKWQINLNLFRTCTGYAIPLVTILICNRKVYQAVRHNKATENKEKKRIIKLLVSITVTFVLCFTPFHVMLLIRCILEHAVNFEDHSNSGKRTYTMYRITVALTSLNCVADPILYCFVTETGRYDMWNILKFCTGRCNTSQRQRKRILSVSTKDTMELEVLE
T2 sequence (P46093 whole entry): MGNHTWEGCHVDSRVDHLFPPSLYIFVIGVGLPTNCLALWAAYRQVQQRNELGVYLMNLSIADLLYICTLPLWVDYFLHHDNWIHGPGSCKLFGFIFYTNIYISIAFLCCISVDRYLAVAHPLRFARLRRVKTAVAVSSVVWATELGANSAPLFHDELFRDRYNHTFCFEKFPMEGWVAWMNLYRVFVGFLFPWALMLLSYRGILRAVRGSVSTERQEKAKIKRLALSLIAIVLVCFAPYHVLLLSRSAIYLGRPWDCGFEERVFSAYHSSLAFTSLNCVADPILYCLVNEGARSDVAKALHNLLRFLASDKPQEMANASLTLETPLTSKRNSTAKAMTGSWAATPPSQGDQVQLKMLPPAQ

Compound	increase of cell migration compared with control cells (TDAG8 [1])	concentration at which ERK activation was evident (GPR4 [2])	time point at which ERK activation was evident (GPR4 [2]) [min]	GPR4-dependent ERK activation (in words) (GPR4 [2])	TDAG8 receptor internalization (TDAG8 [3])	activation of SRE reporter ([4]; lipid 1 μM) [fold]	increase of cell migration over GFP-Swiss 3T3 cells (GPR4 [5]) [fold]	chemokinetic assay: cell motility vs controls (GPR4 [5])	increase of DNA synthesis (Swiss 3T3 cells; 3 μM, parental and GFP-infected cells)	transcriptional activation of SRE (in words) [4]	DNA synthesis response (in words) (Swiss 3T3 cells; GFP-expressing cells)
lysophosphatidylcholine [LPC]	four to five-fold	~100 nM	5	enhanced ERK activation	not						
CCCCCCCCCCCCC/C=C/[C@@H](O)[C@@H](N)COP(=O)([O-])OCC[N+](C)(C)C [SPC, Sphingosylphosphorylcholine]	four to five-fold	approximately 10 nM	1	enhanced ERK activation	induced TDAG8 receptor internalization	≤ 1.5	2.0	did not significantly change cell motility	approximately 6.3 fold		
CCCCCCCCCCCCCCCC(=O)OC[C@@H](O)COP(=O)([O-])OCC[N+](C)(C)C [16:0-LPC]							1.7	did not significantly change cell motility		not	did not respond significantly
